# Laboratory results taken from paper PMC9202104 (BMC Biology, 2022).
# Tests used:
# [1] = Cytotoxicity, Cell Counting Kit-8, Vero E6 cells; assay type: cell-based; details: African green monkey, CC50 Vero E6
# Method: (§1) Briefly, compounds at 2-fold serial dilutions were added to the respective cells (2.0×10^4/well) pre-seeded in 96-well plates. The cells were cultured at 37°C in the presence of 5% CO2 for 3 days, […] incubated with CCK8 solution, followed by measurement of absorbance at 450 nm (A450 value), using a microplate reader (Infinite F200PRO, Tecan, Morrisville, NC, USA). CC50 of compounds was calculated using the CalcuSyn program.
# [2] = tested on: Vero E6 cells; assay: Cytotoxicity, Cell Counting Kit-8, Vero E6 cells; assay type: cell-based; details: African green monkey, 3 days
# Method: as §1
compound,measurement,setting,value
Cc1cc2c(C(C)C)c(O)c(O)c(/C=N/n3c(=O)[nH][nH]c3=O)c2c(O)c1-c1c(C)cc2c(C(C)C)c(O)c(O)c(/C=N/n3c(=O)[nH][nH]c3=O)c2c1O [ST087010],CC50 at 3 days,[1],49.6 µM
same,CC50,[2],49.6 ± 1.83 µM
